Source: patent US8202856B2 (Merck Serono SA, priority 2007, dated 2012)
pEC50: −log10 of the molar value. Where a name gives a salt, the structure may show the parent alone.

Target: S1P1 receptor (Homo sapiens, UniProt P21453)
Assay: 35S-GTPγS binding, membranes from CHO cells expressing S1P1
Type: biochemical
Details: CHO cell membranes expressing S1P1
Method in brief: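 Membranes (1–10 μg) from CHO cells expressing the receptor were incubated with compound in 20 mM HEPES pH 7.4, 10 mM MgCl2, 140 mM NaCl, 1.7 μM GDP, saponin and 0.2% BSA. [35S]GTPγS (added at 1.5 nM) was then bound for 60 min at 30 °C. Membrane-bound radioactivity, averaged over triplicates, is expressed relative to S1P activation (n=2).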

Chain of S1P1 receptor (P21453 whole entry): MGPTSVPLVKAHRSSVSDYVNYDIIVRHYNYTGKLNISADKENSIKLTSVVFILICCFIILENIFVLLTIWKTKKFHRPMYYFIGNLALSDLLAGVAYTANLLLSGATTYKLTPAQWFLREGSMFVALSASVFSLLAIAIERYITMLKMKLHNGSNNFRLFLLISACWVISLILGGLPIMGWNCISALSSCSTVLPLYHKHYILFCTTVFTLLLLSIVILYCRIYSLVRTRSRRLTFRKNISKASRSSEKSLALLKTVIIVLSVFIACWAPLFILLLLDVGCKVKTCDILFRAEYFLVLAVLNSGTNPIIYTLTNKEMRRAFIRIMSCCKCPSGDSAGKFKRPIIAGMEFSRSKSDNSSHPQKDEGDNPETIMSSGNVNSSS

Row | SMILES | pEC50
1 | COc1ccc(-c2noc(-c3nnn(-c4ccccc4F)c3-c3ccncc3)n2)cn1 [Example 126, 5-{5-[1-(2-fluorophenyl)-5-pyridin-4-yl-1H-1,2,3-triazol-4-yl]-1,2,4-oxadiazol-3-yl}-2-methoxypyridine] | 6.65
2 | Fc1ccccc1-n1nnc(-c2nc(-c3ccc(CN4CCC(F)(F)CC4)cc3)no2)c1-c1ccncc1 [Example 161] | 6.26
3 | O=C(O)[C@H]1CCC[C@H]1NCc1ccc(-c2noc(-c3nnn(-c4ccccc4F)c3-c3ccncc3)n2)cc1 [Example 177, (1S,2R)-2-[(4-{5-[1-(2-fluorophenyl)-5-pyridin-4-yl-1H-1,2,3-triazol-4-yl]-1,2,4-oxadiazol-3-yl}benzyl)amino]cyclopentanecarboxylic acid] | 6.13
4 | Fc1ccccc1-n1nnc(-c2nc(-c3cccnc3)no2)c1Cc1ccccc1 [Example 75, 3-{5-[5-benzyl-1-(2-fluorophenyl)-1H-1,2,3-triazol-4-yl]-1,2,4-oxadiazol-3-yl}pyridine] | 6.18
5 | Fc1ccccc1-n1nnc(-c2nc(-c3ccc4c(c3)NCC4)no2)c1-c1ccncc1 [Example 157, 6-{5-[1-(2-fluorophenyl)-5-pyridin-4-yl-1H-1,2,3-triazol-4-yl]-1,2,4-oxadiazol-3-yl}indoline] | 6.66
6 | OCCNCc1cccc(-c2noc(-c3nnn(-c4ccccc4F)c3-c3ccncc3)n2)c1 [Example 132, 2-[(3-{5-[1(2-fluorophenyl)-5-pyridin-4-yl-1H-1,2,3-triazol-4-yl]-1,2,4-oxadiazol-3-yl}benzyl)amino]ethanol formate] | 6.42
7 | COc1cccc(-c2noc(-c3nnn(-c4ccccc4F)c3-c3ccccn3)n2)c1 [Example 70, 2-{1-(2-fluorophenyl)-4-[3-(3-methoxyphenyl)-1,2,4-oxadiazol-5-yl]-1H-1,2,3-triazol-5-yl}pyridine] | 6.55
8 | COCc1c(-c2nc(-c3ccc(N)nc3)no2)nnn1-c1ccccc1F [Example 123, 5-{5-[1-(2-fluorophenyl)-5-(methoxymethyl)-1H-1,2,3-triazol-4-yl]-1,2,4-oxadiazol-3-yl}pyridin-2-amine] | 6.32
9 | OCC1CCCN(Cc2ccc(-c3noc(-c4nnn(-c5ccccc5F)c4-c4ccncc4)n3)cc2)C1 (stereo not shown) [Example 140, [1-(4-{5-[1-(2-fluorophenyl)-5-pyridin-4-yl-1H-1,2,3-triazol-4-yl]-1,2,4-oxadiazol-3-yl}benzyl)piperidin-3-yl]methanol] | 6.28
10 | Fc1ccccc1-n1nnc(-c2nc(-c3cccc(Cn4cncn4)c3)no2)c1-c1ccccn1 [Example 86, 2-(1-(2-fluorophenyl)-4-{3-[3-(1H-1,2,4-triazol-1-ylmethyl)phenyl]-1,2,4-oxadiazol-5-yl}-1H-1,2,3-triazol-5-yl)pyridine] | 6.12
11 | COCc1c(-c2nc(-c3ccc(Cn4cccn4)cc3)no2)nnn1-c1ccccc1F [Example 173, 5-[1-(2-fluorophenyl)-5-(methoxymethyl)-1H-1,2,3-triazol-4-yl]-3-[4-(1H-pyrazol-1-ylmethyl)phenyl]-1,2,4-oxadiazole] | 6.62

These reach a higher pEC50. Values come first.

Row | pEC50 | SMILES
12 | 6.87 | Fc1ccccc1-n1nnc(-c2nc(-c3ccc(C4OCCO4)cc3)no2)c1-c1ccncc1 [Example 110, 4-[4-{3-[4-(1,3-dioxolan-2-yl)phenyl]-1,2,4-oxadiazol-5-yl}-1-(2-fluorophenyl)-1H-1,2,3-triazol-5-yl]pyridine]
13 | 7.72 | Fc1ccccc1-n1nnc(-c2nc(-c3ccc4[nH]ccc4c3)no2)c1-c1ccncc1 [Example 43, 5-{5-[1-(2-fluorophenyl)-5-pyridin-4-yl-1H-1,2,3-triazol-4-yl]-1,2,4-oxadiazol-3-yl}-1H-indole]
14 | 7.11 | Nc1cc(-c2noc(-c3nnn(-c4ccccc4F)c3-c3ccncc3)n2)ccn1 [Example 152, 4-{5-[1-(2-fluorophenyl)-5-pyridin-4-yl-1H-1,2,3-triazol-4-yl]-1,2,4-oxadiazol-3-yl}pyridin-2-amine]
15 | 6.93 | OCC1CN(Cc2ccc(-c3noc(-c4nnn(-c5ccccc5F)c4-c4ccncc4)n3)cc2)CCO1 (stereo not shown) [Example 143, [4-(4-{5-[1-(2-fluorophenyl)-5-pyridin-4-yl-1H-1,2,3-triazol-4-yl]-1,2,4-oxadiazol-3-yl}benzyl)morpholin-2-yl]methanol]
16 | 7.80 | O=C(O)[C@H]1CC[C@H](NCc2ccc(-c3noc(-c4nnn(-c5ccccc5F)c4-c4ccncc4)n3)cc2)CC1 [Example 168, (trans)-4-(4-(5-(1-(2-fluorophenyl)-5-(pyridin-4-yl)-1H-1,2,3-triazol-4-yl)-1,2,4-oxadiazol-3-yl)benzylamino)cyclohexanecarboxylic acid]
17 | 7.41 | Fc1ccc(Br)c(-c2noc(-c3nnn(-c4ccccc4F)c3-c3ccncc3)n2)c1 [Example 149, 4-[4-[3-(2-bromo-5-fluorophenyl)-1,2,4-oxadiazol-5-yl]-1-(2-fluorophenyl)-1H-1,2,3-triazol-5-yl]pyridine]
18 | 6.86 | Fc1ccc(-c2noc(-c3nnn(-c4ccccc4F)c3-c3ccncc3)n2)cc1 [Example 96, 4-{1-(2-fluorophenyl)-4-[3-(4-fluorophenyl)-1,2,4-oxadiazol-5-yl]-1H-1,2,3-triazol-5-yl}pyridine]
19 | 6.88 | Nc1ccc(-c2noc(-c3nnn(-c4ccccc4F)c3-c3ccncc3)n2)cn1 [Example 118, 5-{5-[1-(2-fluorophenyl)-5-pyridin-4-yl-1H-1,2,3-triazol-4-yl]-1,2,4-oxadiazol-3-yl}pyridin-2-amine]
20 | 7.77 | CC(C)NCc1ccc(-c2noc(-c3nnn(-c4ccccc4F)c3-c3ccncc3)n2)cc1 [Example 165, N-(4-{5-[1-(2-fluorophenyl)-5-pyridin-4-yl-1H-1,2,3-triazol-4-yl]-1,2,4-oxadiazol-3-yl}benzyl)propan-2-amine]
21 | 7.35 | CN(CC(=O)O)Cc1ccc(-c2noc(-c3nnn(-c4ccccc4F)c3-c3ccncc3)n2)cc1 [Example 130, N-(4-{5-[1-(2-fluorophenyl)-5-pyridin-4-yl-1H-1,2,3-triazol-4-yl]-1,2,4-oxadiazol-3-yl}benzyl)-N-methylglycine]
22 | 8.30 | Fc1ccccc1-n1nnc(-c2nc(-c3ccc(Cn4cncn4)cc3)no2)c1-c1ccncc1 [Example 172, 4-(1-(2-fluorophenyl)-4-{3-[4-(1H-1,2,4-triazol-1-ylmethyl)phenyl]-1,2,4-oxadiazol-5-yl}-1H-1,2,3-triazol-5-yl)pyridine]
23 | 6.68 | O=C(O)C1(NCc2ccc(-c3noc(-c4nnn(-c5ccccc5F)c4-c4ccncc4)n3)cc2)CC1 [Example 162, 1-(4-(5-(1-(2-fluorophenyl)-5-(pyridin-4-yl)-1H-1,2,3-triazol-4-yl)-1,2,4-oxadiazol-3-yl)benzylamino)cyclopropanecarboxylic acid]
24 | 6.98 | COCc1c(-c2nc(-c3ccc(Cn4cncn4)cc3)no2)nnn1-c1ccccc1F [Example 176, 5-[1-(2-fluorophenyl)-5-(methoxymethyl)-1H-1,2,3-triazol-4-yl]-3-[4-(1H-1,2,4-triazol-1-ylmethyl)phenyl]-1,2,4-oxadiazole]
25 | 7.28 | COCCc1c(-c2nc(-c3cc(F)ccc3F)no2)nnn1-c1ccccc1F [Example 44, 3-(2,5-difluorophenyl)-5-[1-(2-fluorophenyl)-5-(2-methoxyethyl)-1H-1,2,3-triazol-4-yl]-1,2,4-oxadiazole]
